Experimental data published in patent US10442807B2, “Aryl substituted bicyclic compounds as herbicides” (FMC Corporation, priority 2015, dated 2019).

What was measured:
Format in all cases: in vivo
[1] = system: barnyardgrass (Echinochloa crus-galli); assay: Test A preemergence, directed soil spray, visual injury rating; details: approx. 10 d, 0 = no effect, 100 = complete control
How it was run: (§1)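 Seeds sown in loam/sand soil got a directed soil spray before emergence, or plants at one- to two-leaf stage (2-10 cm) were sprayed postemergence; chemical in non-phytotoxic solvent with surfactant. Greenhouse approx. 10 d, then visual injury vs untreated controls on 0 (no effect) to 100 (complete control) scale.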

[2] = system: foxtail, giant (giant foxtail, Setaria faberii); assay: as above; details: approx. 10 d, 0 = no effect, 100 = complete control
How it was run: as §1

[3] = system: kochia (Kochia scoparia); assay: as above; details: approx. 10 d, 0 = no effect, 100 = complete control
How it was run: as §1

[4] = system: pigweed (Amaranthus retroflexus); assay: as above; details: approx. 10 d, 0 = no effect, 100 = complete control
How it was run: as §1

[5] = system: ragweed (common ragweed, Ambrosia elation); assay: as above; details: approx. 10 d, 0 = no effect, 100 = complete control
How it was run: as §1

[6] = system: ryegrass, Italian (Italian ryegrass, Lolium multiflorum); assay: as above; details: approx. 10 d, 0 = no effect, 100 = complete control
How it was run: as §1

[7] = system: barnyardgrass (Echinochloa crus-galli); assay: Test A postemergence application, visual injury rating; details: approx. 10 d, 0 = no effect, 100 = complete control
How it was run: as §1

[8] = system: blackgrass (Alopecurus myosuroides); assay: as above; details: approx. 10 d, 0 = no effect, 100 = complete control
How it was run: as §1

[9] = system: corn (Zea mays); assay: as above; details: approx. 10 d, 0 = no effect, 100 = complete control
How it was run: as §1

[10] = system: foxtail, giant (giant foxtail, Setaria faberii); assay: as above; details: approx. 10 d, 0 = no effect, 100 = complete control
How it was run: as §1

[11] = system: galium (catchweed bedstraw, Galium aparine); assay: as above; details: approx. 10 d, 0 = no effect, 100 = complete control
How it was run: as §1

[12] = system: kochia (Kochia scoparia); assay: as above; details: approx. 10 d, 0 = no effect, 100 = complete control
How it was run: as §1

[13] = system: pigweed (Amaranthus retroflexus); assay: as above; details: approx. 10 d, 0 = no effect, 100 = complete control
How it was run: as §1

[14] = system: ragweed (common ragweed, Ambrosia elation); assay: as above; details: approx. 10 d, 0 = no effect, 100 = complete control
How it was run: as §1

[15] = system: ryegrass, Italian (Italian ryegrass, Lolium multiflorum); assay: as above; details: approx. 10 d, 0 = no effect, 100 = complete control
How it was run: as §1

[16] = system: wheat (Triticum aestivum); assay: as above; details: approx. 10 d, 0 = no effect, 100 = complete control
How it was run: as §1

[17] = system: barnyardgrass (Echinochloa crus-galli); assay: Test B flooded paddy test, visual plant response rating; details: 250 g ai/ha; applied to paddy water at 2-leaf stage; rated after 13 to 15 days; scale 0 to 100, 0 is no effect, 100 is complete control
How it was run: (§2)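 Water stood 3 cm above the soil when compounds were applied into it, and it was kept there for the whole test. After 13 to 15 days in the greenhouse, plants were compared with controls and rated visually from 0 (no effect) to 100 (complete control).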

[18] = system: ducksalad (Heteranthera limosa); assay: as above; details: 250 g ai/ha; applied to paddy water at 2-leaf stage; rated after 13 to 15 days; scale 0 to 100, 0 is no effect, 100 is complete control
How it was run: as §2

[19] = system: rice (Oryza sativa); assay: as above; details: 250 g ai/ha; applied to paddy water at 2-leaf stage; rated after 13 to 15 days; scale 0 to 100, 0 is no effect, 100 is complete control
How it was run: as §2

[20] = system: sedge, umbrella (small-flower umbrella sedge, Cyperus difformis); assay: as above; details: 250 g ai/ha; applied to paddy water at 2-leaf stage; rated after 13 to 15 days; scale 0 to 100, 0 is no effect, 100 is complete control
How it was run: as §2

SMILES | Barnyardgrass plant response rating (0 to 100 scale) ([1]; 125 g ai/ha) | Barnyardgrass plant response rating (0 to 100 scale) ([1]; 500 g ai/ha) | Foxtail, Giant plant response rating (0 to 100 scale) ([2]; 125 g ai/ha) | Foxtail, Giant plant response rating (0 to 100 scale) ([2]; 500 g ai/ha) | Kochia plant response rating (0 to 100 scale) ([3]; 125 g ai/ha) | Kochia plant response rating (0 to 100 scale) ([3]; 500 g ai/ha) | Pigweed plant response rating (0 to 100 scale) ([4]; 125 g ai/ha) | Pigweed plant response rating (0 to 100 scale) ([4]; 500 g ai/ha) | Ragweed plant response rating (0 to 100 scale) ([5]; 125 g ai/ha) | Ragweed plant response rating (0 to 100 scale) ([5]; 500 g ai/ha) | Ryegrass, Italian plant response rating (0 to 100 scale) ([6]; 125 g ai/ha) | Ryegrass, Italian plant response rating (0 to 100 scale) ([6]; 500 g ai/ha) | Barnyardgrass plant response rating (0 to 100 scale) ([7]; 125 g ai/ha) | Barnyardgrass plant response rating (0 to 100 scale) ([7]; 500 g ai/ha) | Blackgrass plant response rating (0 to 100 scale) ([8]; 125 g ai/ha) | Blackgrass plant response rating (0 to 100 scale) ([8]; 500 g ai/ha) | Corn plant response rating (0 to 100 scale) ([9]; 125 g ai/ha) | Corn plant response rating (0 to 100 scale) ([9]; 500 g ai/ha) | Foxtail, Giant plant response rating (0 to 100 scale) ([10]; 125 g ai/ha) | Foxtail, Giant plant response rating (0 to 100 scale) ([10]; 500 g ai/ha) | also measured
Cc1ccc(C2Cn3c(C)nnc3C2C(=O)Nc2cccc(F)c2C)cc1C (stereo not drawn) [Compound 10] | 50 | 90 | 80 | 90 | 0 | 50 | 0 | 20 | 0 | 0 | 0 | 70 | 50 | 90 | 0 | 70 | 20 | 40 | 30 | 80 | Galium plant response rating (0 to 100 scale) ([11]; 125 g ai/ha): 0; Galium plant response rating (0 to 100 scale) ([11]; 500 g ai/ha): 50; Kochia plant response rating (0 to 100 scale) ([12]; 125 g ai/ha): 0; Kochia plant response rating (0 to 100 scale) ([12]; 500 g ai/ha): 30; Pigweed plant response rating (0 to 100 scale) ([13]; 125 g ai/ha): 0; Pigweed plant response rating (0 to 100 scale) ([13]; 500 g ai/ha): 0; Ragweed plant response rating (0 to 100 scale) ([14]; 125 g ai/ha): 0; Ragweed plant response rating (0 to 100 scale) ([14]; 500 g ai/ha): 20; Ryegrass, Italian plant response rating (0 to 100 scale) ([15]; 125 g ai/ha): 0; Ryegrass, Italian plant response rating (0 to 100 scale) ([15]; 500 g ai/ha): 30; Wheat plant response rating (0 to 100 scale) ([16]; 125 g ai/ha): 30; Wheat plant response rating (0 to 100 scale) ([16]; 500 g ai/ha): 30; Plant response rating, Flood, Barnyardgrass [17]: 20; Plant response rating, Flood, Ducksalad [18]: 45; Plant response rating, Flood, Rice [19]: 0; Plant response rating, Flood, Sedge, Umbrella [20]: 0
CCc1ccc(C2Cn3cnnc3C2C(=O)Nc2cccc(F)c2F)cc1 (stereo not drawn) [Compound 11] | 70 | 90 | 80 | 90 | 60 | 70 | 30 | 30 | 0 | 40 | 0 | 30 | 70 | 80 | 0 | 20 | 0 | 30 | 40 | 70 | Galium plant response rating (0 to 100 scale) ([11]; 125 g ai/ha): 20; Galium plant response rating (0 to 100 scale) ([11]; 500 g ai/ha): 50; Kochia plant response rating (0 to 100 scale) ([12]; 125 g ai/ha): 40; Kochia plant response rating (0 to 100 scale) ([12]; 500 g ai/ha): 50; Pigweed plant response rating (0 to 100 scale) ([13]; 125 g ai/ha): 0; Pigweed plant response rating (0 to 100 scale) ([13]; 500 g ai/ha): 0; Ragweed plant response rating (0 to 100 scale) ([14]; 125 g ai/ha): 0; Ragweed plant response rating (0 to 100 scale) ([14]; 500 g ai/ha): 30; Ryegrass, Italian plant response rating (0 to 100 scale) ([15]; 125 g ai/ha): 0; Ryegrass, Italian plant response rating (0 to 100 scale) ([15]; 500 g ai/ha): 50; Wheat plant response rating (0 to 100 scale) ([16]; 125 g ai/ha): 0; Wheat plant response rating (0 to 100 scale) ([16]; 500 g ai/ha): 20; Plant response rating, Flood, Barnyardgrass [17]: 0; Plant response rating, Flood, Ducksalad [18]: 95; Plant response rating, Flood, Rice [19]: 0; Plant response rating, Flood, Sedge, Umbrella [20]: 70
O=C(Nc1cccc(F)c1F)C1c2nncn2CC1c1ccc(C(F)(F)F)cc1 (stereo not drawn) [Compound 12] | 20 | 80 | 90 | 90 | 30 | 80 | 30 | 80 | 0 | 50 | 40 | 60 | 30 | 90 | 0 | 60 | 0 | 60 | 30 | 90 | Galium plant response rating (0 to 100 scale) ([11]; 125 g ai/ha): 30; Galium plant response rating (0 to 100 scale) ([11]; 500 g ai/ha): 70; Kochia plant response rating (0 to 100 scale) ([12]; 125 g ai/ha): 20; Kochia plant response rating (0 to 100 scale) ([12]; 500 g ai/ha): 60; Pigweed plant response rating (0 to 100 scale) ([13]; 125 g ai/ha): 0; Pigweed plant response rating (0 to 100 scale) ([13]; 500 g ai/ha): 70; Ragweed plant response rating (0 to 100 scale) ([14]; 125 g ai/ha): 0; Ragweed plant response rating (0 to 100 scale) ([14]; 500 g ai/ha): 50; Ryegrass, Italian plant response rating (0 to 100 scale) ([15]; 125 g ai/ha): 0; Ryegrass, Italian plant response rating (0 to 100 scale) ([15]; 500 g ai/ha): 60; Wheat plant response rating (0 to 100 scale) ([16]; 125 g ai/ha): 0; Wheat plant response rating (0 to 100 scale) ([16]; 500 g ai/ha): 40; Plant response rating, Flood, Barnyardgrass [17]: 0; Plant response rating, Flood, Ducksalad [18]: 75; Plant response rating, Flood, Rice [19]: 0; Plant response rating, Flood, Sedge, Umbrella [20]: 0
